Results: publication PMC10702058, “Phase I dose escalation study and pilot efficacy analysis of LXI-15029, a novel mTOR dual inhibitor, in Chinese subjects with advanced malignant solid tumors” (BMC Cancer, 2023)
“Also recorded” adds a separate entry of the source.

Experiment: Phase I dose escalation: safety and tolerability (DLT, MTD, adverse events, NCI-CTCAE 4.03)

CNC(=O)c1cccc(-c2ccc3c(N4C5CCC4COC5)nc(N4CCOC[C@@H]4C)nc3n2)c1 [LXI-15029]
≥ 10% TRAE: GGT increased (80 mg BID (n = 4)): 0 n (%) | ≥ 10% TRAE: Hypercholesterolemia (80 mg BID (n = 4)): 0 n (%) | ≥ 10% TRAE: Hypertriglyceridemia (80 mg BID (n = 4)): 0 n (%) | ≥ 10% TRAE: LDL increased (80 mg BID (n = 4)): 0 n (%) | ≥ 10% TRAE: Leukocytopenia (80 mg BID (n = 4)): 2 (50.0) n (%) | ≥ 10% TRAE: Neutropenia (80 mg BID (n = 4)): 0 n (%) | ≥ 10% TRAE: Sinus bradycardia (80 mg BID (n = 4)): 1 (25.0) n (%) | Patients with any TEAE (110 mg BID (n = 3)): 3 (100.0) n (%) | Patients with any TEAE, maximum CTCAE Grade 1 (110 mg BID (n = 3)): 3 (100.0) n (%) | Patients with any TEAE, maximum CTCAE Grade 2 (110 mg BID (n = 3)): 0 n (%) | Patients with any TEAE, maximum CTCAE Grade 3 (110 mg BID (n = 3)): 0 n (%) | ≥ 10% TRAE: ALT increased (110 mg BID (n = 3)): 1 (33.3) n (%) | ≥ 10% TRAE: AST increased (110 mg BID (n = 3)): 2 (66.7) n (%) | ≥ 10% TRAE: Decreased appetite (110 mg BID (n = 3)): 0 n (%) | ≥ 10% TRAE: Diarrhea (110 mg BID (n = 3)): 0 n (%) | ≥ 10% TRAE: ECG QT prolonged (110 mg BID (n = 3)): 2 (66.7) n (%) | ≥ 10% TRAE: Fatigue (110 mg BID (n = 3)): 0 n (%) | ≥ 10% TRAE: GGT increased (110 mg BID (n = 3)): 0 n (%) | ≥ 10% TRAE: Hypercholesterolemia (110 mg BID (n = 3)): 0 n (%) | ≥ 10% TRAE: Hypertriglyceridemia (110 mg BID (n = 3)): 0 n (%) | ≥ 10% TRAE: LDL increased (110 mg BID (n = 3)): 0 n (%) | ≥ 10% TRAE: Leukocytopenia (110 mg BID (n = 3)): 1 (33.3) n (%) | ≥ 10% TRAE: Neutropenia (110 mg BID (n = 3)): 0 n (%) | ≥ 10% TRAE: Sinus bradycardia (110 mg BID (n = 3)): 0 n (%) | Patients with any TEAE (150 mg BID (n = 4)): 4 (100.0) n (%) | Patients with any TEAE, maximum CTCAE Grade 1 (150 mg BID (n = 4)): 2 (50.0) n (%) | Patients with any TEAE, maximum CTCAE Grade 2 (150 mg BID (n = 4)): 1 (25.0) n (%) | Patients with any TEAE, maximum CTCAE Grade 3 (150 mg BID (n = 4)): 1 (25.0) n (%) | ≥ 10% TRAE: ALT increased (150 mg BID (n = 4)): 2 (50.0) n (%) | ≥ 10% TRAE: AST increased (150 mg BID (n = 4)): 2 (50.0) n (%) | ≥ 10% TRAE: Decreased appetite (150 mg BID (n = 4)): 1 (25.0) n (%) | ≥ 10% TRAE: Diarrhea (150 mg BID (n = 4)): 0 n (%) | ≥ 10% TRAE: ECG QT prolonged (150 mg BID (n = 4)): 0 n (%) | ≥ 10% TRAE: Fatigue (150 mg BID (n = 4)): 0 n (%) | ≥ 10% TRAE: GGT increased (150 mg BID (n = 4)): 2 (50.0) n (%) | ≥ 10% TRAE: Hypercholesterolemia (150 mg BID (n = 4)): 0 n (%) | ≥ 10% TRAE: Hypertriglyceridemia (150 mg BID (n = 4)): 1 (25.0) n (%) | ≥ 10% TRAE: LDL increased (150 mg BID (n = 4)): 0 n (%) | ≥ 10% TRAE: Leukocytopenia (150 mg BID (n = 4)): 3 (75.0) n (%) | ≥ 10% TRAE: Neutropenia (150 mg BID (n = 4)): 3 (75.0) n (%) | ≥ 10% TRAE: Sinus bradycardia (150 mg BID (n = 4)): 1 (25.0) n (%) | dose-limiting toxicity (DLT) (150 mg BID group, one participant, within the DLT observation window): grade 3 increased alanine aminotransferase (ALT); also recorded: Only one DLT was observed | Patients with any TEAE, maximum CTCAE Grade 1 (Total (n = 24)): 15 (62.5) n (%) | Patients with any TEAE, maximum CTCAE Grade 2 (Total (n = 24)): 6 (25.0) n (%) | Patients with any TEAE, maximum CTCAE Grade 3 (Total (n = 24)): 1 (4.2) n (%) | ≥ 10% TRAE: ALT increased (Total (n = 24)): 5 (20.8) n (%) | ≥ 10% TRAE: AST increased (Total (n = 24)): 5 (20.8) n (%) | ≥ 10% TRAE: Decreased appetite (Total (n = 24)): 3 (12.5) n (%) | ≥ 10% TRAE: Diarrhea (Total (n = 24)): 4 (16.7) n (%) | ≥ 10% TRAE: ECG QT prolonged (Total (n = 24)): 5 (20.8) n (%) | ≥ 10% TRAE: Fatigue (Total (n = 24)): 4 (16.7) n (%) | ≥ 10% TRAE: GGT increased (Total (n = 24)): 4 (16.7) n (%) | ≥ 10% TRAE: Hypercholesterolemia (Total (n = 24)): 3 (12.5) n (%) | ≥ 10% TRAE: Hypertriglyceridemia (Total (n = 24)): 5 (20.8) n (%) | ≥ 10% TRAE: LDL increased (Total (n = 24)): 3 (12.5) n (%) | ≥ 10% TRAE: Leukocytopenia (Total (n = 24)): 10 (41.7) n (%) | ≥ 10% TRAE: Neutropenia (Total (n = 24)): 4 (16.7) n (%) | ≥ 10% TRAE: Sinus bradycardia (Total (n = 24)): 4 (16.7) n (%) | TRAEs of CTCAE grade 1 (all doses): 62.5% | TRAEs of CTCAE grade 2 (all doses): 25% | other serious treatment-related AEs (besides the DLT) (all doses): No other serious treatment-related AEs were reported | mean ALT change from baseline (all doses except the 10-mg and 80-mg doses): increased slightly | mean AST change from baseline (all doses except the 10-mg, 60-mg, and 80-mg doses): increased slightly | treatment-related AE: hypertriglyceridemia (all doses, 24 patients): 20.8% | treatment-related AE: increased alanine aminotransferase (all doses, 24 patients): 20.8% | treatment-related AE: increased aspartate aminotransferase (all doses, 24 patients): 20.8% | treatment-related AE: leukocytopenia (all doses, 24 patients): 41.7% | treatment-related AE: prolonged electrocardiogram QT interval (all doses, 24 patients): 20.8% | deaths within 28 days of the last dose (attributed to disease progression unrelated to treatment): One | association of AE rates, laboratory parameters, vital signs, ECG, other safety data with dose levels (descriptive results): No apparent associations | participants with TEAEs leading to LXI-15029 discontinuation (of 24 participants): Three | participants with a TRAE leading to LXI-15029 discontinuation (of 24 participants): one | participants with a serious TRAE (of 24 participants): one | participants with serious TEAEs (of 24 participants): Five | participants with treatment-emergent AEs (TEAEs) (of 24 participants): 24 participants | participants with treatment-related AEs (TRAEs) (of 24 participants): 22 participants | patients with TEAEs occurring within 30 days after LXI-15029 discontinuation (of 24 participants): Eleven | treatment discontinuation because of AEs (of 24 participants): 2 (8.3%) n (%) | treatment discontinuation because of DLT (of 24 participants): 1 (4.2%) n (%) | tolerability (oral BID, 10 to 150 mg): well tolerated at all doses; also recorded: well tolerated at all dose levels; also recorded: well tolerable | maximum tolerated dose (MTD) (oral monotherapy, Chinese patients with advanced solid tumors): 110 mg BID
